{
  "source": "paper PMC7901654",
  "about": "“Bioisosteric Discovery of NPA101.3, a Second-Generation RET/VEGFR2 Inhibitor Optimized for Single-Agent Polypharmacology” (Journal of Medicinal Chemistry, 2020)",
  "key": {"RET/C634R": {"biological_target": "T1, RET/C634R (Homo sapiens, UniProt P07949, C634R)", "T1 construct": "expressed in transfected cells; host or cells: RAT1 fibroblasts (gift of M. Billaud)", "T1 sequence (P07949 29-1072 isoform P07949-2 C634R limits assumed)": "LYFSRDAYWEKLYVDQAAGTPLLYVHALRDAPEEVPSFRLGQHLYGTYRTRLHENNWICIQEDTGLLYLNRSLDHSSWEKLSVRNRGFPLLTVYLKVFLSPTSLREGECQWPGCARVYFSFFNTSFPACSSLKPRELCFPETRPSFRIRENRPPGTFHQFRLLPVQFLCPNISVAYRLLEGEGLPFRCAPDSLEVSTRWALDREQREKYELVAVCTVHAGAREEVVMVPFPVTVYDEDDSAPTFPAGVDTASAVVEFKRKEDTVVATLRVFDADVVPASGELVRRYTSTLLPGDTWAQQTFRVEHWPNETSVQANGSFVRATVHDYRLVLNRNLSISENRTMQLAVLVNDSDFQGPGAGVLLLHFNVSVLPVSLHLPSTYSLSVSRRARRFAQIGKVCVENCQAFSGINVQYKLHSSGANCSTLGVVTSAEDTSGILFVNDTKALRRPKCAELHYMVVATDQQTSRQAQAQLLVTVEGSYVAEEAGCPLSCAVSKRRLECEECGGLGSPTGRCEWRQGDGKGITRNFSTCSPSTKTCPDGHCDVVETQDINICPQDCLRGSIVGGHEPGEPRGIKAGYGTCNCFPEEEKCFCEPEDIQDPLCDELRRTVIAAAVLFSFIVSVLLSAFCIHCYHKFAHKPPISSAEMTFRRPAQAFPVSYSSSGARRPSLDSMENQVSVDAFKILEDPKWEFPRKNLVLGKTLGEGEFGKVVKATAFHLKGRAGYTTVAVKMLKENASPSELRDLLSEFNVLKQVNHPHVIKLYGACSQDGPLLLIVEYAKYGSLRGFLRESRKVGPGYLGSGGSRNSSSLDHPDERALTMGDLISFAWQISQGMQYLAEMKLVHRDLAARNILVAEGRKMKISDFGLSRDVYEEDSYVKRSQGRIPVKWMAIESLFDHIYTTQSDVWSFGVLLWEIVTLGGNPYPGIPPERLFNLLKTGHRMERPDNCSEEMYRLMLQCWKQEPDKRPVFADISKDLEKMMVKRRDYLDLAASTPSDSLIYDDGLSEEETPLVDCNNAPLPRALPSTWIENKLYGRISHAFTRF", "assay": "RET autophosphorylation (Y905, Y1062) Western blot in transfected fibroblasts (RAT1)", "type": "cell-based", "details": "2 h", "description": "Fibroblasts transfected with RET/C634R were treated with increasing doses of NPA101.3, ranging from 0.1 to 10.0 nM. RET autophosphorylation was assessed by Western blotting using two different antibodies that can recognize phosphorylated Y905, located in the RET kinase activation loop, or Y1062, a multidocking site involved in RET downstream signaling.[41]\nFigure 4 NPA101.3-mediated inhibition of phosphorylation and signaling of oncogenic RET mutants and VEGFR2 in intact cells. Serum-starved RAT1 cells exogenously expressing the (A and B) indicated RET point mutants or (C) NIH3T3 cells exogenously expressing the indicated RET rearranged mutants were treated for 2 h with the indicated concentrations of the compound. Total cell lysates (50 μg) were subjected to immunoblotting with anti-phospho-Y1062 (αp1062) and anti-phospho-Y905 (αp905) RET antibodies. The blots were normalized using the anti-RET (αRET) antibody. (D) HEK293 cells were transiently transfected with human VEGFR2; 36 h after transfection, cells were serum starved for 12 h. The indicated doses of the compound or vehicle (NT) were added for 2 h, and then VEGFA (100 ng/mL) stimulation was applied for 15 min. […]\nProtein lysates were prepared according to standard procedures. […] Immune complexes were detected with the enhanced chemiluminescence kit (Amersham Pharmacia Biotech, Little Chalfont, U.K.). […]"}, "[1]": {"tested_on": "Nthy-ori-3.1, BCPAP, 8505-C, PC-9, A549, CALU-1", "assay": "SHC/MAPK signalling in control cell lines lacking RET oncogenes", "type": "cell-based, human", "details": "2 h treatment", "description": "NPA101.3 inhibited RET autophosphorylation and signaling along the SHC/MAPK pathway in human cancer cell lines endogenously expressing RET oncogenic variants, including MTC cell lines, TT (RET/C634W) and MZ-CRC-1 (RET/M918T), and PTC cell line TPC-1 (CCDC6-RET); in the lung adenocarcinoma cell line Lc-2/ad (CCDC6-RET), only RET and SHC (but not MAPK) dephosphorylation was detectable (Figure S4).\nProtein lysates were prepared according to standard procedures. Briefly, cells were lysed in a buffer containing 50 mM N-2-hydroxyethylpiperazine-N′-2-ethanesulfonic acid (HEPES; pH 7.5), 1% (v/v) Triton X-100, 150 mM NaCl, 5 mM EGTA, 50 mM NaF, 20 mM sodium pyrophosphate, 1 mM sodium vanadate, 2 mM phenylmethanesulfonyl fluoride (PMSF), and 1 μg/mL aprotinin. Lysates were clarified by centrifugation at 10000g for 15 min. […] Immune complexes were detected with the enhanced chemiluminescence kit (Amersham Pharmacia Biotech, Little Chalfont, U.K.). Anti-phospho-SHC (#Y317), which recognizes SHC protein when phosphorylated on Y317, was from Upstate Biotechnology Inc. (Lake Placid, NY). Anti-SHC (H-108) was from Santa Cruz Biotechnology (Santa Cruz, CA). Anti-MAPK (9101) and anti-phospho-MAPK (9102), specific for p42/44MAPK (ERK1/2) phosphorylated on Thr202/Tyr204, antibodies were from Cell Signaling Technologies (Danvers, MA). […]"}, "PLK1": {"biological_target": "T2, PLK1 (Homo sapiens, UniProt P53350)", "T2 construct": "purchased DiscoveRx KINOMEscan (TRKA and CSF1R IC50 enzymes from Invitrogen)", "T2 sequence (P53350 whole entry)": "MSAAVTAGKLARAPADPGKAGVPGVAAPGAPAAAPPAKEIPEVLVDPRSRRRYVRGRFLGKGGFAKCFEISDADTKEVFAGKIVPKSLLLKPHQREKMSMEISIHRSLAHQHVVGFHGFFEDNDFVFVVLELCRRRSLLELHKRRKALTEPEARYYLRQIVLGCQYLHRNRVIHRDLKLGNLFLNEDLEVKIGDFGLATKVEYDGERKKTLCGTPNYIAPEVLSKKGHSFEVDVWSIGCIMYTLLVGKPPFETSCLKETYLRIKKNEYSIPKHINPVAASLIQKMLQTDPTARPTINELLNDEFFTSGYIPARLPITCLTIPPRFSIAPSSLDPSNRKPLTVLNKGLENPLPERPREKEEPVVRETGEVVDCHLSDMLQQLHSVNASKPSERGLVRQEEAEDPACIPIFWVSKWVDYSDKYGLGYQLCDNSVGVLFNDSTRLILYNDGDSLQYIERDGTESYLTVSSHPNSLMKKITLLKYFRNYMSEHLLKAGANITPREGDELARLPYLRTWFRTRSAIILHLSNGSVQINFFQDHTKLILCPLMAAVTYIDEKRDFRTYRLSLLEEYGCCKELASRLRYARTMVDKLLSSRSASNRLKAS", "assay": "KinomeScan panel screen", "type": "binding", "details": "PLK1, 100 nM; read-out: Percent Control", "description": "(§1) In addition, NPA101.3, at a concentration of 100 nM, was subjected to a kinome scan against a 96-kinase panel representing major kinome clusters (Table S2). The compound featured good selectivity, displaying strong binding activity (>90% bound) for only seven additional kinases [CSF1R (colony stimulating factor 1 receptor), FRK (fyn-related Src family tyrosine kinase), HCK (HCK proto-oncogene, Src family tyrosine kinase), LYN (lyn proto-oncogene, Src family tyrosine kinase), MKNK2 (MAPK-interacting serine/threonine kinase 2), TRKA (neurotrophic receptor tyrosine kinase 1), and TRKC (neurotrophic receptor tyrosine kinase 3)] and weak binding (>10–35% bound) for six other kinases (Table S2 and Figure S2). It is important to note that the measurement of binding affinity, which is based on control ligand displacement (Kd), is more sensitive than the in vitro kinase assay. Among the seven kinases with >90% binding, TRKA and CSF1R were selected for an in vitro kinase assay.\n(§2) Supplementary Table S2: NPA101.3 KinomeScan Panel screen.\n(§3) NPA101.3 was screened at a single concentration of 100 nM. Hits values lower than\n(§4) 10% of control were considered strongly positive.\n(§5) DiscoveRx Gene Entrez Gene Percent Compound\n(§6) Symbol Symbol Control Concentration"}, "IGF1R": {"biological_target": "T3, IGF1R (Homo sapiens, UniProt P08069)", "T3 construct": "purchased DiscoveRx KINOMEscan (TRKA and CSF1R IC50 enzymes from Invitrogen)", "assay": "KinomeScan panel screen", "type": "binding", "details": "100 nM, read-out: Percent Control", "description": "as §1, §2, §3, §4, §5, §6"}, "LIMK2": {"biological_target": "T4, LIMK2 (Homo sapiens, UniProt P53671)", "T4 construct": "purchased DiscoveRx KINOMEscan (TRKA and CSF1R IC50 enzymes from Invitrogen)", "assay": "KinomeScan panel screen", "type": "binding", "details": "LIMK2, 100 nM; read-out: Percent Control", "description": "as §1, §2, §3, §4, §5, §6"}, "MLK2": {"biological_target": "T5, MLK2 (Homo sapiens, UniProt Q02779)", "T5 construct": "purchased DiscoveRx KINOMEscan (TRKA and CSF1R IC50 enzymes from Invitrogen)", "T5 sequence (Q02779 whole entry)": "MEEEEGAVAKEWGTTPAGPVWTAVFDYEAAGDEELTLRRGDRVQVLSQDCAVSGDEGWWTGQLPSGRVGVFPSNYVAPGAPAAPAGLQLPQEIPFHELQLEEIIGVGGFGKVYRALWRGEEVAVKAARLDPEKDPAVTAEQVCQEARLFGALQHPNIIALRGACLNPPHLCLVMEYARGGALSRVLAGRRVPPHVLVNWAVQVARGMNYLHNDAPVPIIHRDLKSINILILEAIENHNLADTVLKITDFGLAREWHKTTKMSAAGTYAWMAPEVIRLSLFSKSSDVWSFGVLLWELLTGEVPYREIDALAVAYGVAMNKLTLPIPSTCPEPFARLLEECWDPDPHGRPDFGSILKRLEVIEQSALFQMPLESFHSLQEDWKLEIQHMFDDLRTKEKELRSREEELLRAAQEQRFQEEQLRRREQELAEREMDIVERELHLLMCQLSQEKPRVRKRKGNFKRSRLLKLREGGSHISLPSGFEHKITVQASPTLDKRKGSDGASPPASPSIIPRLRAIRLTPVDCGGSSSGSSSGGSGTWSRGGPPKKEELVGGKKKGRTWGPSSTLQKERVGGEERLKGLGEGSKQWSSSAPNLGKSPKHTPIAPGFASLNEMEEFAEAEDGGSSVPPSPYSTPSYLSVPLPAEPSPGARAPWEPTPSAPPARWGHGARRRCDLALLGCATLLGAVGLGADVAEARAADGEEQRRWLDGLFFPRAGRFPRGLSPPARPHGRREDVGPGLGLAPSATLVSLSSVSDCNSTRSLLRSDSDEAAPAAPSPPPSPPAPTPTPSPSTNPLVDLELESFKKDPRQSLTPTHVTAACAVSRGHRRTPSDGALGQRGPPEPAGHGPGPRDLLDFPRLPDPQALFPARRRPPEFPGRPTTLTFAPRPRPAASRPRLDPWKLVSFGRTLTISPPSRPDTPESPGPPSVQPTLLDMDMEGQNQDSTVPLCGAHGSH", "assay": "KinomeScan panel screen", "type": "binding", "details": "MLK2, 100 nM; read-out: Percent Control", "description": "as §1, §2, §3, §4, §5, §6"}, "MTOR": {"biological_target": "T6, MTOR (Homo sapiens, UniProt P42345)", "T6 construct": "purchased DiscoveRx KINOMEscan (TRKA and CSF1R IC50 enzymes from Invitrogen)", "assay": "KinomeScan panel screen", "type": "binding", "details": "100 nM, read-out: Percent Control", "description": "as §1, §2, §3, §4, §5, §6"}, "FRK": {"biological_target": "T7, FRK (Homo sapiens, UniProt P42685)", "T7 construct": "purchased DiscoveRx KINOMEscan (TRKA and CSF1R IC50 enzymes from Invitrogen)", "T7 sequence (P42685 whole entry)": "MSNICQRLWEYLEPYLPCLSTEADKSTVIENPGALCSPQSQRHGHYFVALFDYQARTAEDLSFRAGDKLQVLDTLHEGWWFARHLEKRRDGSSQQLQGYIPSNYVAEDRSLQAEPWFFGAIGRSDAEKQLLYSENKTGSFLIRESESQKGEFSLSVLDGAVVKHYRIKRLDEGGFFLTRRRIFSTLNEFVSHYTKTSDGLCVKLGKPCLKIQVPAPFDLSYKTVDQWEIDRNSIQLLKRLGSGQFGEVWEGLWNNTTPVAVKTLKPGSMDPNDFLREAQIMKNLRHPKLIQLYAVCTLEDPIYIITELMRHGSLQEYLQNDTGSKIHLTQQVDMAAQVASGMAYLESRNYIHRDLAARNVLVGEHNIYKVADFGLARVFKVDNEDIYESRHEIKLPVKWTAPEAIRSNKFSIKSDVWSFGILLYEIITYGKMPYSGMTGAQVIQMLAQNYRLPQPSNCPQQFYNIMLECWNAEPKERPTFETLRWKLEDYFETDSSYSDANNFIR", "assay": "KinomeScan panel screen", "type": "binding", "details": "100 nM", "description": "as §1, §2, §3, §4, §5, §6"}, "HIPK2": {"biological_target": "T8, HIPK2 (Homo sapiens, UniProt Q9H2X6)", "T8 construct": "purchased DiscoveRx KINOMEscan (TRKA and CSF1R IC50 enzymes from Invitrogen)", "assay": "KinomeScan panel screen", "type": "binding", "details": "HIPK2, 100 nM; read-out: Percent Control", "description": "as §1, §2, §3, §4, §5, §6"}, "TRKC": {"biological_target": "T9, TRKC (Homo sapiens, UniProt Q16288)", "T9 construct": "purchased DiscoveRx KINOMEscan (TRKA and CSF1R IC50 enzymes from Invitrogen)", "T9 sequence (Q16288 32-839)": "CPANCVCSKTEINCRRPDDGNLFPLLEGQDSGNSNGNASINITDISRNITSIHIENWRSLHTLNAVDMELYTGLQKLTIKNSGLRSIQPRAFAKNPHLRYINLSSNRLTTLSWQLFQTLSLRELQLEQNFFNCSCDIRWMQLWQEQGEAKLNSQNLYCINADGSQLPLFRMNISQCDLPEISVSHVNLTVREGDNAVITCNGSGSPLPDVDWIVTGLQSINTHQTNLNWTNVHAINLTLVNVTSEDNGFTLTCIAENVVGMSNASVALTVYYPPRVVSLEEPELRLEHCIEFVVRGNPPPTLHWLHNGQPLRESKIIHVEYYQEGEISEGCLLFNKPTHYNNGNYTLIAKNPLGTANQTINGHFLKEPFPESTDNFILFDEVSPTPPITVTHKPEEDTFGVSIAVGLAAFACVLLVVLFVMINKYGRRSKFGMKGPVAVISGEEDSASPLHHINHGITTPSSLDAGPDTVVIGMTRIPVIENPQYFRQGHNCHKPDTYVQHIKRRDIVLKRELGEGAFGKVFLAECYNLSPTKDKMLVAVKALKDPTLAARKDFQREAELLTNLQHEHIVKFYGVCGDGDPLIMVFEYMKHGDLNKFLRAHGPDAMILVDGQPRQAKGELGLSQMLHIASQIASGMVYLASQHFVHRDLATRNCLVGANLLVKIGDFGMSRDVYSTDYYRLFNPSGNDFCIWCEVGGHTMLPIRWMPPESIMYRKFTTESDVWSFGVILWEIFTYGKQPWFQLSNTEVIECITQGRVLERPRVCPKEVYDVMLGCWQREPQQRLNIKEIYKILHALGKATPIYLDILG", "assay": "KinomeScan panel screen", "type": "binding", "details": "100 nM", "description": "as §1, §2, §3, §4, §5, §6"}, "PIK3CA": {"biological_target": "T10, PIK3CA (Homo sapiens, UniProt P42336)", "T10 construct": "purchased DiscoveRx KINOMEscan (TRKA and CSF1R IC50 enzymes from Invitrogen)", "T10 sequence (P42336 whole entry)": "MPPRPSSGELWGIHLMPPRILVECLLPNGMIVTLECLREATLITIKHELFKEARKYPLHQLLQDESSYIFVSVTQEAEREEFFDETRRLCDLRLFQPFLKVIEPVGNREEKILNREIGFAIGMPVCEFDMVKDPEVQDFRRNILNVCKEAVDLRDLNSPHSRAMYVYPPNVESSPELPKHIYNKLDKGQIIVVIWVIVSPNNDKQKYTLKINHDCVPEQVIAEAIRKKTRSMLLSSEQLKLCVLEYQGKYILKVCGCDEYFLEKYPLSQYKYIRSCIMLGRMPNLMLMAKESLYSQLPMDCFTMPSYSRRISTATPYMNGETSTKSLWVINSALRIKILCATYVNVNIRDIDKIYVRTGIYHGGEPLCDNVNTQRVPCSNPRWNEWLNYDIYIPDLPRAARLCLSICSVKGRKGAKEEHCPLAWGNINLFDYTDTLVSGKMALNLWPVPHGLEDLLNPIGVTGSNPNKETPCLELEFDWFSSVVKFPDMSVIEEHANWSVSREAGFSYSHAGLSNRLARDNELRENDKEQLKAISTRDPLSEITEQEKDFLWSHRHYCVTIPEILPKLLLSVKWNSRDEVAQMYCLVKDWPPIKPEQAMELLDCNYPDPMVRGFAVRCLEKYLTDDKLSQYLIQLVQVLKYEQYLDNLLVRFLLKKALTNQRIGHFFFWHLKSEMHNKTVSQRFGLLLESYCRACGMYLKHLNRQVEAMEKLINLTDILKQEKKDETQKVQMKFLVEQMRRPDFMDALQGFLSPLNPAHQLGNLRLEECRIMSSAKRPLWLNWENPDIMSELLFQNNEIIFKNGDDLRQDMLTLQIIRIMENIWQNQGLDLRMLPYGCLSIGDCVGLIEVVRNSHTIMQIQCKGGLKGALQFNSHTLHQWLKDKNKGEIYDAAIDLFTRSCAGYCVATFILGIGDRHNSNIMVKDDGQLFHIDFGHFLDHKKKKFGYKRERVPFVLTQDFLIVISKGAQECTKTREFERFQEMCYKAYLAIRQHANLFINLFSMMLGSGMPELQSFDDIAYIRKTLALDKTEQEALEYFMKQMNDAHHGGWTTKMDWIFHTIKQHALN", "assay": "KinomeScan panel screen", "type": "binding", "details": "100 nM, read-out: Percent Control", "description": "as §1, §2, §3, §4, §5, §6"}},
  "data": [
    {"molecule": "CC(C)(C)c1cc(NC(=O)Cc2ccc(-n3cnc4cc(-c5ccc(S(C)(=O)=O)cc5)ccc43)cc2)no1", "note": "[NPA101.3]", "values": [
      {"measurement": "RET phosphorylation (Y905, Y1062)", "setting": "RET/C634R; 0.3 nM", "value": "started to be inhibited"},
      {"measurement": "RET phosphorylation (Y905, Y1062)", "setting": "RET/C634R; 3.0 nM", "value": "almost completely blocked"},
      {"measurement": "effect on SHC/MAPK signaling", "setting": "[1]", "value": "Virtually no effect"},
      {"measurement": "remaining binding at 0.1 µM", "setting": "PLK1", "value": 99, "unit": "%"},
      {"measurement": "remaining binding at 0.1 µM", "setting": "IGF1R", "value": 100, "unit": "%"},
      {"measurement": "remaining binding at 0.1 µM", "setting": "LIMK2", "value": 94, "unit": "%"},
      {"measurement": "remaining binding at 0.1 µM", "setting": "MLK2", "value": 100, "unit": "%"},
      {"measurement": "remaining binding at 0.1 µM", "setting": "MTOR", "value": 97, "unit": "%"},
      {"measurement": "binding (% bound)", "setting": "FRK", "value": "> 90", "unit": "% bound"},
      {"measurement": "remaining binding at 0.1 µM", "setting": "FRK; FRK, read-out: Percent Control", "value": 1.1, "unit": "%"},
      {"measurement": "remaining binding at 0.1 µM", "setting": "HIPK2", "value": 98, "unit": "%"},
      {"measurement": "binding (% bound)", "setting": "TRKC", "value": "> 90", "unit": "% bound"},
      {"measurement": "remaining binding at 0.1 µM", "setting": "TRKC; TRKC, read-out: Percent Control", "value": 0.25, "unit": "%"},
      {"measurement": "remaining binding at 0.1 µM", "setting": "PIK3CA", "value": 100, "unit": "%"}
    ]}
  ]
}
